Results on two molecules are retold here after patent US20140162942A1, “INHIBITION OF CYP3A DRUG METABOLISM” (priority 2010, published 2014).

The target in one data set is HCV NS3 serine protease (Hepatitis C virus genotype 1a, UniProt P27958). The conditions noted are these: as described in WO2005/015579; cited from earlier work.
The next data set relates to CYP3A4/5. Nature of the data set: Clinical study: effect of boceprevir on the pharmacokinetic profile of midazolam in healthy adult subjects. The conditions noted are these: for AUC(0-t) / Cmax / Tmax: both, human, in vivo, 4 mg; for Tmax: MDZ Tmax. Here is the method:
A clinical study was conducted to determine the effects of boceprevir on the pharmacokinetic (PK) profile of midazolam (MDZ) to assess the ability of boceprevir to inhibit CYP3A4/5 in vivo by monitoring its effect on the metabolism of MDZ, a sensitive CYP3A4/5 substrate.
This study was conducted in healthy adult subjects (seven male and five female subjects), at a single center, in conformance with Good Clinical Practices. The study used a fixed-sequence design ([…]). The PK profile of MDZ and its metabolite (1-hydroxy midazolam [1-0H-MDZ)) was determined when MDZ was administered alone and compared with the PK profile after co-administration of boceprevir as well as following a washout period of 7 days after boceprevir administration.
Boceprevir (BOC) 800 mg was administered as 4×200 mg capsules. MDZ 4 mg was administered as a single dose of an oral solution.
Day 1: MDZ 4 mg (oral solution, single dose)
Days 1 to 5: Boceprevir 800 mg (4×200 mg capsules) TID
Day 6: MDZ 4 mg (oral solution, single dose) and boceprevir 800 mg (4×200 mg capsules) TID Days 8 and 13: MDZ 4 mg (oral solution, single dose)
Blood samples for PK analyses were collected: for MDZ and 1-0H-MDZ: Days −1, 6, 8, and 13: predose (Ohr) and at 0.5, 1, 2, 3, 4, 8, 12, and 24 hours postdose for boceprevir: predose (Ohr) on Day 4 and Day 5 and on Day 6: predose (Ohr), and at 0.5, 1, 2, 3, 4, 6, and 8 hr postdose. The 8 hour sample was to be collected prior to the administration of the next dose of Boceprevir.

SMILES strings stand for the structures.

HCV NS3 serine protease, sequence (P27958 1658-1711): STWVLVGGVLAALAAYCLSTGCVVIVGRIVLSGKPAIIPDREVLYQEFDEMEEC
HCV NS3 serine protease, sequence (P27958 1027-1657): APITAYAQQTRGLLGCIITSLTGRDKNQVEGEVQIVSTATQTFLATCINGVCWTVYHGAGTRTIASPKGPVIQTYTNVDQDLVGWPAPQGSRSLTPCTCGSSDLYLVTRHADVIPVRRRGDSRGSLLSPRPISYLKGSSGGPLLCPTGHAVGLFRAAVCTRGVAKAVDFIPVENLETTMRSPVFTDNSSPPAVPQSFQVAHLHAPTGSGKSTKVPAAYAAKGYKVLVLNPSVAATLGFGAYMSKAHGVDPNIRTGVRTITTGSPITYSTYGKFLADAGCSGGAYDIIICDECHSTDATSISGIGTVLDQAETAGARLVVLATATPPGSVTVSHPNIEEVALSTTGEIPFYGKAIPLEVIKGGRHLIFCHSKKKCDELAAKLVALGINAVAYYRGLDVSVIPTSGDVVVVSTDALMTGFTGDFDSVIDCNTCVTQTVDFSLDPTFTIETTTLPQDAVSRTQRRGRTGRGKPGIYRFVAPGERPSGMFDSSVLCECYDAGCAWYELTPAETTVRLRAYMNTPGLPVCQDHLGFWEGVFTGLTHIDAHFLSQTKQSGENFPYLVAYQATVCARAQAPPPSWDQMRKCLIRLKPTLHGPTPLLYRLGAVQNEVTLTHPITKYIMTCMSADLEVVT

Regarding `CC(C)(C)NC(=O)N[C@H](C(=O)N1C[C@H]2[C@@H]([C@H]1C(=O)N[C@@H](CC1CCC1)C(=O)C(N)=O)C2(C)C)C(C)(C)C` [Formula 1b, (1R,2S,5S)—N-[(1S)-3-amino-1-(cyclobutylmethyl)-2,3-dioxopropyl]-3-[(2S)-2[[[(1,1-dimethylethyl)amino]carbonyl]amino]-3,3-dimethyl-1-oxobutyl]-6,6-dimethyl-3-azabicyclo[3.1.0]hexane-2-carboxamide], on HCV NS3 serine protease, the “in vitro HCV NS3 serine protease inhibitory activity compared with the compound of Formula 1c” value is given as “significantly higher”.
As for `Cc1ncc2n1-c1ccc(Cl)cc1C(c1ccccc1F)=NC2` [MDZ, midazolam], the “Plasma concentrations of MDZ, return to baseline after boceprevir” value in the data set with CYP3A4/5 (48 hours post last administration of boceprevir) is reported as “returned to baseline values by Day 8”. Moreover, the AUC(0-t) in the data set with CYP3A4/5 (MDZ AUC (0-24 hr) LS Mean, MDZ Alone (Day 8)) stood at 56.1 ng·h/mL; in the data set with CYP3A4/5 (MDZ AUC (0-24 hr) LS Mean, MDZ Alone (Day 13)) it was 43.8 ng·h/mL; in the data set on CYP3A4/5 (MDZ AUC (0-24 hr) LS Mean, MDZ Alone (Day-1)) it was 52.9 ng·h/mL; in the data set on CYP3A4/5 (MDZ AUC(0-24 hr), MDZ Alone (Day 8), after boceprevir) it was 59.2 ng·h/mL; in the data set with CYP3A4/5 (MDZ AUC(0-24 hr), MDZ Alone (Day 13), after boceprevir), 45.4 ng·h/mL; in the data set with CYP3A4/5 (po, MDZ AUC(0-24 hr), MDZ Alone (Day-1), MDZ 4 mg oral, n = 12) it was 56.4 ng·h/mL. In addition, the Cmax in the data set on CYP3A4/5 (MDZ Cmax LS Mean, MDZ Alone (Day 8)) turned out to be 9.82 ng/mL; in the data set with CYP3A4/5 (MDZ Cmax LS Mean, MDZ Alone (Day 13)), 8.94 ng/mL; with CYP3A4/5 (MDZ Cmax LS Mean, MDZ Alone (Day-1)) it was 9.96 ng/mL; in the data set with CYP3A4/5 (MDZ Cmax, MDZ Alone (Day 8), after boceprevir), 10.3 ng/mL; with CYP3A4/5 (MDZ Cmax, MDZ Alone (Day 13), after boceprevir), 9.15 ng/mL; in the data set on CYP3A4/5 (po, MDZ Cmax, MDZ Alone (Day-1), MDZ 4 mg oral, n = 12), 10.3 ng/mL. Further, the Tmax in the data set on CYP3A4/5 (MDZ Alone (Day 8), after boceprevir) came out at 2 h; in the data set on CYP3A4/5 (MDZ Alone (Day 13), after boceprevir) it was 1 h; in the data set with CYP3A4/5 (po, MDZ Alone (Day-1), MDZ 4 mg oral, n = 12), 2 h.
